According to the supplement of paper PMC10307832:

Assays:
Test in all cases: relative viability (nuclei count vs DMSO), 5 days (fraction); higher = more cells survive
NCI-H2085 = test system: NCI-H2085
In short: (§1)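 Lung cancer cell lines, seeded in 1536-well plates, were treated the following day by pin tool with a single drug or with five library-drug doses (not always all listed) in √10 steps on top of a fixed anchor-drug dose. Cells were fixed and nuclei stained in one step after 5 days, and nuclei were counted. Relative viability is the nuclei count for treated wells divided by that for vehicle wells, reported as medians of duplicate plates.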

ABC-1 = test system: ABC-1
In short: as §1

LU99A = test system: LU99A
In short: as §1

NCI-H838 = test system: NCI-H838
In short: as §1

LC-2-ad = test system: LC-2-ad
In short: as §1

EPLC-272H = test system: EPLC-272H
In short: as §1

NCI-H2023 = test system: NCI-H2023
In short: as §1

NCI-H1355 = test system: NCI-H1355
In short: as §1

SW 1573 = test system: SW 1573
In short: as §1

NCI-H2347 = test system: NCI-H2347
In short: as §1

NCI-H2126 = test system: NCI-H2126
In short: as §1

NCI-H650 = test system: NCI-H650
In short: as §1

COR-L23 = test system: COR-L23
In short: as §1

HARA = test system: HARA
In short: as §1

HCC-78 = test system: HCC-78
In short: as §1

NCI-H1993 = test system: NCI-H1993
In short: as §1

HCC-15 = test system: HCC-15
In short: as §1

PC-14 = test system: PC-14
In short: as §1

UMC-11 = test system: UMC-11
In short: as §1

NCI-H1651 = test system: NCI-H1651
In short: as §1

NCI-H1915 = test system: NCI-H1915
In short: as §1

Compound: CC1(C)CCC(c2ccc(Cl)cc2)=C(CN2CCN(c3ccc(C(=O)NS(=O)(=O)c4ccc(N[C@H](CCN5CCOCC5)CSc5ccccc5)c(S(=O)(=O)C(F)(F)F)c4)cc3)CC2)C1 [Navitoclax] + CC(C)C[C@H](NC(=O)[C@H](Cc1ccccc1)NC(=O)c1cnccn1)B(O)O [Bortezomib] (partner 0.002 µM)
- relative viability (NCI-H2085; first compound 0.005 µM): 0.977
- relative viability (NCI-H2085; first compound 0.01581 µM): 1.09
- relative viability (NCI-H2085; first compound 0.05 µM): 0.855
- relative viability (NCI-H2085; first compound 0.1581 µM): 1.15
- relative viability (NCI-H2085; first compound 0.5 µM): 0.978
- relative viability (ABC-1; first compound 0.005 µM): 0.28
- relative viability (ABC-1; first compound 0.01581 µM): 0.286
- relative viability (ABC-1; first compound 0.05 µM): 0.265
- relative viability (ABC-1; first compound 0.1581 µM): 0.254
- relative viability (ABC-1; first compound 0.5 µM): 0.216
- relative viability (LU99A; first compound 0.005 µM): 1.08
- relative viability (LU99A; first compound 0.01581 µM): 1.29
- relative viability (LU99A; first compound 0.05 µM): 0.857
- relative viability (LU99A; first compound 0.1581 µM): 1.15
- relative viability (LU99A; first compound 0.5 µM): 1.32
- relative viability (NCI-H838; first compound 0.005 µM): 0.65
- relative viability (NCI-H838; first compound 0.01581 µM): 1.19
- relative viability (NCI-H838; first compound 0.05 µM): 1.17
- relative viability (NCI-H838; first compound 0.1581 µM): 0.75
- relative viability (NCI-H838; first compound 0.5 µM): 0.81
- relative viability (LC-2-ad; first compound 0.005 µM): 0.988
- relative viability (LC-2-ad; first compound 0.01581 µM): 1.1
- relative viability (LC-2-ad; first compound 0.05 µM): 0.941
- relative viability (LC-2-ad; first compound 0.1581 µM): 1.01
- relative viability (LC-2-ad; first compound 0.5 µM): 1.06
- relative viability (EPLC-272H; first compound 0.005 µM): 0.925
- relative viability (EPLC-272H; first compound 0.1581 µM): 0.988
- relative viability (EPLC-272H; first compound 0.5 µM): 0.887
- relative viability (NCI-H2023; first compound 0.005 µM): 1.06
- relative viability (NCI-H2023; first compound 0.01581 µM): 1.18
- relative viability (NCI-H2023; first compound 0.05 µM): 0.857
- relative viability (NCI-H2023; first compound 0.1581 µM): 0.906
- relative viability (NCI-H2023; first compound 0.5 µM): 0.938
- relative viability (NCI-H1355; first compound 0.005 µM): 1.02
- relative viability (NCI-H1355; first compound 0.01581 µM): 1.24
- relative viability (NCI-H1355; first compound 0.05 µM): 1.06
- relative viability (NCI-H1355; first compound 0.1581 µM): 1.15
- relative viability (NCI-H1355; first compound 0.5 µM): 1.14
- relative viability (SW 1573; first compound 0.005 µM): 1.04
- relative viability (SW 1573; first compound 0.01581 µM): 1.24
- relative viability (SW 1573; first compound 0.05 µM): 0.895
- relative viability (SW 1573; first compound 0.1581 µM): 0.796
- relative viability (SW 1573; first compound 0.5 µM): 1.15
- relative viability (NCI-H2347; first compound 0.005 µM): 1.71
- relative viability (NCI-H2347; first compound 0.05 µM): 0.812
- relative viability (NCI-H2347; first compound 0.1581 µM): 1.03
- relative viability (NCI-H2347; first compound 0.5 µM): 1.09
- relative viability (NCI-H2126; first compound 0.005 µM): 1.08
- relative viability (NCI-H2126; first compound 0.01581 µM): 1.12
- relative viability (NCI-H2126; first compound 0.05 µM): 1.07
- relative viability (NCI-H2126; first compound 0.1581 µM): 1.12
- relative viability (NCI-H2126; first compound 0.5 µM): 1.15
- relative viability (NCI-H650; first compound 0.005 µM): 0.742
- relative viability (NCI-H650; first compound 0.01581 µM): 0.959
- relative viability (NCI-H650; first compound 0.05 µM): 0.817
- relative viability (NCI-H650; first compound 0.1581 µM): 0.767
- relative viability (NCI-H650; first compound 0.5 µM): 0.837
- relative viability (COR-L23; first compound 0.005 µM): 0.964
- relative viability (COR-L23; first compound 0.01581 µM): 1.03
- relative viability (COR-L23; first compound 0.05 µM): 1.15
- relative viability (COR-L23; first compound 0.1581 µM): 0.929
- relative viability (COR-L23; first compound 0.5 µM): 0.975
- relative viability (HARA; first compound 0.005 µM): 1.04
- relative viability (HARA; first compound 0.01581 µM): 1.11
- relative viability (HARA; first compound 0.05 µM): 0.643
- relative viability (HARA; first compound 0.1581 µM): 1.08
- relative viability (HARA; first compound 0.5 µM): 1.18
- relative viability (HCC-78; first compound 0.005 µM): 0.582
- relative viability (HCC-78; first compound 0.01581 µM): 0.611
- relative viability (HCC-78; first compound 0.05 µM): 0.404
- relative viability (HCC-78; first compound 0.1581 µM): 0.45
- relative viability (HCC-78; first compound 0.5 µM): 0.469
- relative viability (NCI-H1993; first compound 0.005 µM): 1.11
- relative viability (NCI-H1993; first compound 0.01581 µM): 1.58
- relative viability (NCI-H1993; first compound 0.05 µM): 0.961
- relative viability (NCI-H1993; first compound 0.1581 µM): 0.958
- relative viability (NCI-H1993; first compound 0.5 µM): 1.06
- relative viability (HCC-15; first compound 0.005 µM): 0.941
- relative viability (HCC-15; first compound 0.01581 µM): 0.995
- relative viability (HCC-15; first compound 0.05 µM): 0.85
- relative viability (HCC-15; first compound 0.1581 µM): 1.06
- relative viability (HCC-15; first compound 0.5 µM): 1
- relative viability (PC-14; first compound 0.005 µM): 0.876
- relative viability (PC-14; first compound 0.01581 µM): 1
- relative viability (PC-14; first compound 0.05 µM): 0.934
- relative viability (PC-14; first compound 0.1581 µM): 0.865
- relative viability (PC-14; first compound 0.5 µM): 0.86
- relative viability (UMC-11; first compound 0.005 µM): 0.629
- relative viability (UMC-11; first compound 0.01581 µM): 0.8
- relative viability (UMC-11; first compound 0.1581 µM): 0.661
- relative viability (UMC-11; first compound 0.5 µM): 0.311
- relative viability (NCI-H1651; first compound 0.005 µM): 0.918
- relative viability (NCI-H1651; first compound 0.01581 µM): 0.916
- relative viability (NCI-H1651; first compound 0.05 µM): 0.423
- relative viability (NCI-H1651; first compound 0.1581 µM): 0.943
- relative viability (NCI-H1651; first compound 0.5 µM): 0.957
- relative viability (NCI-H1915; first compound 0.005 µM): 0.969
- relative viability (NCI-H1915; first compound 0.01581 µM): 0.925
- relative viability (NCI-H1915; first compound 0.05 µM): 0.82
- relative viability (NCI-H1915; first compound 0.1581 µM): 0.865
- relative viability (NCI-H1915; first compound 0.5 µM): 0.929
